The values below come from PubChem BioAssay AID1996.

In brackets after ≈: the same amount, converted by molar mass.

The term solubility (kinetic) denotes the concentration staying in solution when a stock, usually in DMSO, is diluted into the medium.

For the data set the following is noted: buffer; pH 7.4; 200.0 µM.
`COc1cc(OC)cc(C(=O)N[C@H](C(=O)OCC(=O)c2ccc(C)c([N+](=O)[O-])c2)C(C)C)c1` showed a kinetic solubility of 28.8 µg/mL (≈ 62.8 µM).
The figure for `CC(=O)O/N=C/c1c(C)c(C=O)n2ccccc12` is above 36.6 µg/mL; for `Cc1ccc(O)c(NC(=O)C2CC(c3cccc(Br)c3)=NO2)c1` (stereo not drawn) it is below 0.4 µg/mL.
The result for `COCCNC(=O)c1cc2sccc2n1C` reads above 35.7 µg/mL; that for `O=C(Nc1nc2cc3c(cc2s1)OCO3)c1ccco1`, 1 µg/mL (≈ 3.47 µM).
The result for `Cn1c(C(=O)NCCc2ccccc2)cc(=O)n(C)c1=O` reads above 43.1 µg/mL; that for `Cc1cccc(C(=O)OCC(=O)NCc2ccco2)c1`, above 41 µg/mL.
`CCNC(=O)CCSc1nc(C)cc(C)n1` yielded a kinetic solubility above 35.9 µg/mL.
For the compound `O=C(O)c1cn(C2CCCCC2)c2ccccc2c1=O`, the kinetic solubility is above 40.7 µg/mL.
The result for `C#CCOc1ccc(/C=C2/C(=O)ON=C2C)cc1Cl` reads 32.9 µg/mL (≈ 119 µM); that for `COc1ccc(NC(=S)NCCCN2CCCC2)cc1Cl`, above 49.2 µg/mL.
The result for `Cn1cc(/C=C2\SC(=O)N(c3ccc(O)cc3)C2=O)c2ccccc21` reads below 0.4 µg/mL.
The result for `O=C(Nc1ccc(NC(=O)c2ccco2)nc1)c1cccc(F)c1` reads 1.9 µg/mL (≈ 5.84 µM); that for `Cc1ccccc1C(=O)NCC(=O)N1CCN(c2ccccn2)CC1`, above 50.8 µg/mL.
As to `CCN(CC)c1nc2c(c(=O)[nH]c(=O)n2C)n1Cc1ccccc1`, the solubility (kinetic) turned out to be 30.5 µg/mL (≈ 93.2 µM).
The compound `CCc1nonc1NC(=O)c1oc2c(C)c(C)ccc2c1C` registered a solubility (kinetic) of 0.6 µg/mL (≈ 2 µM).
The figure for `O=C(Nc1ncc2c(n1)-c1ccccc1OC2)c1cccc([N+](=O)[O-])c1` is 1.4 µg/mL (≈ 4.02 µM); for `O=C(NCCc1ccccc1)c1c(O)c2ccccc2[nH]c1=O` it is below 0.3 µg/mL.
The compound `CN(C)CCCNC(=O)c1cc(C(=O)c2ccccc2)c[nH]1` yielded a solubility (kinetic) above 44.9 µg/mL.
The figure for `O=C(NCCCN1CCCC1=O)c1ccc(NS(=O)(=O)c2ccccc2)cc1` is 58.8 µg/mL (≈ 146 µM).
As to `COc1ccc(NC(=O)Cc2ccc(Cl)cc2Cl)cn1`, the solubility (kinetic) amounted to 33.8 µg/mL (≈ 109 µM). Compared with the last compound, the solubility kinetic is about 1.7-fold lower.
The compound `CCC(C)NC(=O)c1cc2c(=O)n3ccccc3nc2s1` (stereo not drawn) displayed a solubility (kinetic) of 33 µg/mL (≈ 109 µM).
The result for `CC1(C)CC(=O)C(C2=NC3(CCCCCC3)Cc3ccccc32)=C(O)C1` reads 49.8 µg/mL (≈ 142 µM); that for `COC(=O)CSc1nc(NC(C)C)nc(N(C)C)n1`, 36.6 µg/mL (≈ 128 µM); that for `Cc1ccc(C(=O)N2CCC(C(=O)NC3CCCC3)CC2)cc1`, 44 µg/mL (≈ 140 µM).
The result for `O=C(NC1=NCCS1)c1ccc(Cl)c(Cl)c1` reads 0.9 µg/mL (≈ 3.27 µM); that for `Cc1cc(Nc2cccc(Br)c2)c2ccccc2n1`, 11.9 µg/mL (≈ 38 µM).
Consider `CCCn1c(=S)[nH]c2sc3c(c2c1=O)CCCC3`, for which the kinetic solubility amounted to 1.4 µg/mL (≈ 4.99 µM).
As to `O=Cc1c(NCc2ccccc2)c2ccccc2[nH]c1=O`, the kinetic solubility worked out at 20.7 µg/mL (≈ 74.4 µM).
The result for `O=C(NC12CC3CC(CC(C3)C1)C2)c1cccnc1Cl` reads 22.3 µg/mL (≈ 76.7 µM).
In the case of `Cc1c(O)ccc(C(=O)CN2CCN(Cc3ccccc3)CC2)c1O`, the solubility (kinetic) is 38.1 µg/mL (≈ 112 µM). This solubility kinetic is about 1.7-fold higher than that of the compound before.
The figure for `COc1cccc(C(=O)Nc2ccc(Oc3cccc(C(F)(F)F)c3)nc2)c1` is below 0.4 µg/mL; for `Cc1cccc(N2CCN(C(=O)Cc3ccccc3[N+](=O)[O-])CC2)c1C` it is 3.3 µg/mL (≈ 9.34 µM); for `CN(C(=O)CSc1ncnc2sc3c(c12)CCCC3)C1CCS(=O)(=O)C1` (stereo not drawn) it is above 61.7 µg/mL.
The figure for `O=C(COc1ccccc1)N1CCCCCCC1` is above 37.1 µg/mL.
The result for `CC(=O)Cc1nsc(Nc2cccc(C)c2)n1` reads 30.5 µg/mL (≈ 123 µM); that for `Cc1c(C)n(Cc2ccccc2)c2ncnc(NCCN(C)C)c12`, above 48.5 µg/mL; that for `CC(OC(=O)c1ccc(Br)o1)C(=O)NCC1CCCCC1` (stereo not drawn), 10.7 µg/mL (≈ 29.9 µM).
`O=C(CSC(=S)N1CCOCC1)c1cc2ccccc2oc1=O` showed a kinetic solubility of 7.4 µg/mL (≈ 21.2 µM).
The figure for `CC(C)(C)C(=O)Nc1ccc(NC(=O)c2ccco2)nc1` is above 43.1 µg/mL; for `CC(=O)Nc1ccccc1S(=O)(=O)CC1CC1(Cl)Cl` (stereo not drawn) it is above 48.3 µg/mL; for `O=C(CNC(=O)c1ccc(Cl)cc1)c1ccc(Br)cc1` it is below 0.8 µg/mL.
On to `Cc1ccc(S(N)(=O)=O)cc1NC(=O)C(c1ccccc1)c1ccccc1`, for which the solubility (kinetic) was 37 µg/mL (≈ 97.2 µM).
The result for `CC(=O)c1cccc(NC(=O)c2cc(=O)c3ccccc3o2)c1` reads below 0.7 µg/mL; that for `Fc1ccc(NC(=S)Nc2cccnc2)c(F)c1F`, above 42.5 µg/mL; that for `CCOC(=O)c1c(NC(=O)COC(=O)C2CC2C)sc(C)c1C` (stereo not drawn), below 0.7 µg/mL.
The figure for `Cc1ccc2c(c1)C1(OCCCO1)C(=O)N2` is above 32.9 µg/mL; for `Cc1ccc(Oc2c(C)nc(-c3ccccc3)[nH]c2=O)cc1` it is 1 µg/mL (≈ 3.42 µM); for `CC12CC3CC(C)(C1)CC(C(=O)NCc1ccncc1)(C3)C2` it is above 44.8 µg/mL.
The result for `O=c1[nH]c2ccccc2nc1C(F)(F)F` reads above 32.1 µg/mL; that for `CCCCN(CC)Cc1c(O)ccc2c3c(c(=O)oc12)CCC3`, 44 µg/mL (≈ 139 µM).
For the compound `Cc1ccccc1NCCC(=O)Nc1ccc(Cl)cc1`, the kinetic solubility was above 43.3 µg/mL.
For the compound `Cc1cc(C)c(C#N)c(Nc2cccc(Br)c2)n1`, the kinetic solubility is below 0.2 µg/mL.
